Test system: PARP, caspase-7 and caspase-8 processing
Experiment: Western blot of apoptotic biomarkers
Assay type: cell-based, human
Conditions: 458 nm irradiation, 72 h
From the text: Its effects on apoptotic biochemical markers by Western blotting analysis in MCF7/FasR cells and its Bcl-xL-overexpressed counterpart in comparison with the apoptotic inducer TNFα were examined (Figure 13). Cleavage-mediated inactivation of DNA repair enzyme poly(ADP-ribose) polymerase (PARP) by executioner caspases (e.g., caspase-3, caspase-7) has been considered as a marker of apoptotic cell death. The treatment with TNFα was associated with the proteolytic cleavage of PARP (decreased in 113 kDa full-length, increased in apoptotic 89 kDa fragment) in MCF7/FasR cells (Figure 13A). Since the MCF7 cell line lacks caspase-3 due to the functional deletion of the CASP-3 gene, caspase-7 is the only executioner caspase in these cells, as evidenced by the decreased content in the 35 kDa full-length pro-caspase-7 observed upon TNFα treatment (Figure 13A). The upstream caspase-8 that can directly process caspase-7 (extrinsic pathway) was also activated (loss of 55 kDa full-length pro-caspase-8). […] Importantly, the overexpression of Bcl-xL had no effect on apoptotic markers, regardless of the concentration of complex 4a used, implying that a MOMP-dependent mechanism is unlikely to be involved. In parallel experiments, cell viability and quantification of ATP and GSH levels were assessed. […] The early transient elevation of cytosolic ATP level is a necessary condition for the apoptotic cell death process, followed by a drop that correlates with the time course of cell death. […]
We next evaluated the effect of the pan-caspase inhibitor z-VAD-fmk on caspase signaling. […]
Cell lysate preparation and Western blotting were carried out as previously described. […] Proteins were visualized by ECL (Clarity Western ECL Substrate, Bio-Rad, Marnes-la-Coquette, France) using anti-rabbit or anti-mouse HRP-conjugated IgG (Bio-Rad); analysis of Western blots was assessed with a ChemiDoc imaging system (Bio-Rad).
Figure 13 Evaluation of apoptotic biomarkers. […] (B) MTT, ATP and GSH assays were evaluated in duplicate samples. […]

For CC(C)[n+]1ccn2[c]1[Ir-3]13([c]4ccccc4-c4cccc[n+]41)([c]1ccccc1-c1cccc[n+]13)[c]1n(cc[n+]1C(C)C)C2.F[P-](F)(F)(F)(F)F [Complex 4a], the “processing of PARP, caspase-7 and caspase-8 at GI50 concentration” value (50 nM, MCF7/FasR and MCF7/FasR/Bcl-xL) was “no processing of PARP, caspase-7 and caspase-8 were observed”, the “processing of PARP, caspase-7 and caspase-8 at high concentration” value (250 nM and 1 µM, MCF7/FasR) was “cleavage of PARP and processing of caspase-7 and caspase-8” and the “procaspase-7 expression and PARP activation” value (500 nM, MCF7/FasR) was “significant loss of procaspase-7 expression”.

From publication PMC9861386, “N-Heterocyclic Carbene-Iridium Complexes as Photosensitizers for In Vitro Photodynamic Therapy to Trigger Non-Apoptotic Cell Death in Cancer Cells” (Molecules, 2023)
